Laboratory results published in patent US20260015350A1, “AZAQUINAZOLINE PAN-KRAS INHIBITORS” (Mirati Therapeutics, Inc., priority 2022, published 2026).

What was measured:
KRas^G12D = biological target: T1, KRas^G12D (Homo sapiens, UniProt P01116, G12D); test: KRas binding assay (TR-FRET tracer displacement), KRas G12D
T1 construct: Biotinylated KRas (corresponding to amino acids 1-169, produced at Accelegan Inc.); biotin (biotinylated); purchased Accelegan Inc

KRas^G12R = biological target: T2, KRas^G12R (Homo sapiens, UniProt P01116, G12R); test: KRas binding assay (TR-FRET tracer displacement), KRas G12R
T2 construct: Biotinylated KRas (corresponding to amino acids 1-169, produced at Accelegan Inc.); biotin (biotinylated); purchased Accelegan Inc
T2 sequence (P01116 1-169 isoform P01116-2 G12R): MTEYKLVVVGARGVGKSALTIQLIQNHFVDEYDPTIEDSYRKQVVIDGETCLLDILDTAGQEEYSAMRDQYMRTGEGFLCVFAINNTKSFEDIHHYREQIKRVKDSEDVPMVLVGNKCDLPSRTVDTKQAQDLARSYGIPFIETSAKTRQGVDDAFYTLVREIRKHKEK

KRas^G12V = biological target: T3, KRas^G12V (Homo sapiens, UniProt P01116, G12V); test: KRas binding assay (TR-FRET tracer displacement), KRas G12V
T3 construct: Biotinylated KRas (corresponding to amino acids 1-169, produced at Accelegan Inc.); biotin (biotinylated); purchased Accelegan Inc
T3 sequence (P01116 1-169 isoform P01116-2 G12V): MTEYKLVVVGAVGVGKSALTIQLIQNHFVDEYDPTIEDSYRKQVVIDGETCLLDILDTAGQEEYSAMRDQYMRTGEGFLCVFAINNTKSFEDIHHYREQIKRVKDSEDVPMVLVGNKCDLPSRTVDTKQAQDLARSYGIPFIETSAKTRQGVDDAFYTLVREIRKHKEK

[1] = system: KRas-mediated phosphorylation of ERK in AsPC-1 cells; test: Inhibition of KRas-mediated phosphorylation of ERK (Cisbio HTRF pERK), AsPC-1 cells; type: cell-based; settings: HTRF pERK
Summary of the method: (§1)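 HTRF readout of phospho-ERK in cell lysates after 3 hrs of compound exposure. Dosing: 10 uM top, 3-fold steps, 10 doses, final DMSO 0.8%. Min control: 0.2 uM Trametinib. Lysis ran 40 mins at 4° C, and antibody detection 2 hrs at room temperature.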

[2] = system: KRas-mediated phosphorylation of ERK in H727 cells; test: Inhibition of KRas-mediated phosphorylation of ERK (Cisbio HTRF pERK), H727 cells; type: cell-based; settings: HTRF pERK
Summary of the method: as §1

[3] = Homo sapiens, ASPC1, AsPC-1 cells
[4] = Homo sapiens, NCI-H727, H727 cells

T1 sequence (P01116 1-169 isoform P01116-2 G12D): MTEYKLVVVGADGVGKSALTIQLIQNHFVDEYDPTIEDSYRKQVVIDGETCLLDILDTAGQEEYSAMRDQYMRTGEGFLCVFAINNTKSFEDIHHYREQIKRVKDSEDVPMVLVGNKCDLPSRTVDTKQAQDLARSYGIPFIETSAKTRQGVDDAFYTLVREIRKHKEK

Row | SMILES | IC50 (KRas^G12D) [nM] | IC50 (KRas^G12R) [nM] | IC50 (KRas^G12V) [nM] | IC50 [1, 3] [nM] | IC50 [2, 4] [nM] | IC50 ([1]; AsPC-1 cells) [nM] | IC50 ([2]; H727 cells) [nM]
1 | CCc1c(F)ccc2cc(O)cc(-c3ncc4c(N5CC6C(=O)NC(=O)C6C5)nc(OC[C@]56CCCN5[C@H](COC(=O)N(C)C)CC6)nc4c3F)c12 (stereo partly drawn) [Example 708, ((3S,7aR)-7a-(((4-(4,6-dioxohexahydropyrrolo[3,4-c]pyrrol-2(1H)-yl)-7-(8-ethyl-7-fluoro-3-hydroxynaphthalen-1-yl)-8-fluoropyrido[4,3-d]pyrimidin-2-yl)oxy)methyl)hexahydro-1H-pyrrolizin-3-yl)methyl dimethylcarbamate] | 19900 | 39800 | 42900 | > 10000 | > 10000 | – | –
2 | CCc1c(F)ccc2cc(O)cc(-c3ncc4c(SCc5cc(C(=O)N(C)C)nn5C)nc(OC[C@@]56CCCN5C[C@H](F)C6)nc4c3F)c12 [Example 653, 5-(((7-(8-ethyl-7-fluoro-3-hydroxynaphthalen-1-yl)-8-fluoro-2-(((2R,7aS)-2-fluorohexahydro-1H-pyrrolizin-7a-yl)methoxy)pyrido[4,3-d]pyrimidin-4-yl)thio)methyl)-N,N,1-trimethyl-1H-pyrazole-3-carboxamide] | 123 | 16 | 20 | > 10000 | > 10000 | – | –
3 | CCc1c(F)ccc2cc(O)cc(-c3ncc4c(N5Cc6n[nH]c(C(N)=O)c6C5)nc(OC[C@@]56CCCN5C[C@H](F)C6)nc4c3F)c12 [Example 588, 5-(7-(8-ethyl-7-fluoro-3-hydroxynaphthalen-1-yl)-8-fluoro-2-(((2R,7aS)-2-fluorotetrahydro-1H-pyrrolizin-7a(5H)-yl)methoxy)pyrido[4,3-d]pyrimidin-4-yl)-2,4,5,6-tetrahydropyrrolo[3,4-c]pyrazole-3-carboxamide] | 1780 | 621 | 314 | > 10000 | > 10000 | – | –
4 | CCc1c(F)ccc2cc(O)cc(-c3ncc4c(N5CCCC(C6CCNC6=O)C5)nc(OC[C@@]56CCCN5C[C@H](F)C6)nc4c3F)c12 (single isomer, unassigned) [Example 618] | 644 | 195 | 168 | – | – | > 10000 | > 10000
5 | CCc1c(F)ccc2cc(O)cc(-c3ncc4c(N5CCC6(CC5)CC[S+]6[O-])nc(OC[C@@]56CCCN5C[C@H](F)C6)nc4c3F)c12 (stereo partly drawn) [Example 603, 7-(7-(8-ethyl-7-fluoro-3-hydroxynaphthalen-1-yl)-8-fluoro-2-(((2R,7aS)-2-fluorotetrahydro-1H-pyrrolizin-7a(5H)-yl)methoxy)pyrido[4,3-d]pyrimidin-4-yl)-1-thia-7-azaspiro[3.5]nonane 1-oxide] | 1630 | 453 | 590 | > 10000 | > 10000 | – | –
6 | CCc1c(F)ccc2cc(O)cc(-c3ncc4c(N5C[C@@H]6[C@@H](C(F)(F)F)C[C@]6(CO)C5)nc(OC[C@@]56CCCN5C[C@H](F)C6)nc4c3F)c12 [Example 647, 5-ethyl-6-fluoro-4-(8-fluoro-2-(((2R,7aS)-2-fluorohexahydro-1H-pyrrolizin-7a-yl)methoxy)-4-((1R,5R,6S)-1-(hydroxymethyl)-6-(trifluoromethyl)-3-azabicyclo[3.2.0]heptan-3-yl)pyrido[4,3-d]pyrimidin-7-yl)naphthalen-2-ol] | 1990 | 582 | 581 | 9340 | > 10000 | – | –
7 | CCc1c(F)ccc2cc(O)cc(-c3ncc4c(N5CCCn6nc(S(N)(=O)=O)cc6C5)nc(OC[C@@]56CCCN5C[C@H](F)C6)nc4c3F)c12 [Example 661, 5-(7-(8-ethyl-7-fluoro-3-hydroxynaphthalen-1-yl)-8-fluoro-2-(((2R,7aS)-2-fluorohexahydro-1H-pyrrolizin-7a-yl)methoxy)pyrido[4,3-d]pyrimidin-4-yl)-5,6,7,8-tetrahydro-4H-pyrazolo[1,5-a][1,4]diazepine-2-sulfonamide] | 680 | 699 | 1740 | > 10000 | > 10000 | – | –
8 | CCc1c(F)ccc2cc(O)cc(-c3ncc4c(NCc5cn(C(=O)N(C)C)nc5N)nc(OC[C@@]56CCCN5C[C@H](F)C6)nc4c3F)c12 [Example 639, 3-amino-4-(((7-(8-ethyl-7-fluoro-3-hydroxynaphthalen-1-yl)-8-fluoro-2-(((2R,7aS)-2-fluorohexahydro-1H-pyrrolizin-7a-yl)methoxy)pyrido[4,3-d]pyrimidin-4-yl)amino)methyl)-N,N-dimethyl-1H-pyrazole-1-carboxamide] | 13 | 2 | 2 | 1040 | 718 | – | –
9 | CCc1c(F)ccc2cc(O)cc(-c3ncc4c(N5C[C@H]6C[C@@H](C5)[C@@H](O)[C@@H]6O)nc(OC[C@@]56CCCN5C[C@H](F)C6)nc4c3F)c12 (single isomer, unassigned) [Example 571] | 300 | 59 | 62 | > 10000 | > 10000 | – | –
10 | CCc1c(F)ccc2cc(O)cc(-c3ncc4c(N5CC6(C)CC(CO)(C5)C6)nc(OC[C@@]56CCCN5C[C@H](F)C6)nc4c3F)c12 [Example 565, 5-ethyl-6-fluoro-4-(8-fluoro-2-(((2R,7aS)-2-fluorohexahydro-1H-pyrrolizin-7a-yl)methoxy)-4-(1-(hydroxymethyl)-5-methyl-3-azabicyclo[3.1.1]heptan-3-yl)pyrido[4,3-d]pyrimidin-7-yl)naphthalen-2-ol] | 1160 | 1030 | 908 | > 10000 | > 10000 | – | –
11 | CCc1c(F)ccc2cc(O)cc(-c3ncc4c(N5CCCC(C6CCNC6=O)C5)nc(OC[C@@]56CCCN5C[C@H](F)C6)nc4c3F)c12 (single isomer, unassigned) [Example 619] | 33 | 4 | 21 | – | – | 3620 | 1810
12 | CCc1c(F)ccc2cc(O)cc(-c3ncc4c(N5CCCC(S(N)(=O)=O)CC5)nc(OC[C@@]56CCCN5C[C@H](F)C6)nc4c3F)c12 (stereo partly drawn) [Example 631, 1-(7-(8-ethyl-7-fluoro-3-hydroxynaphthalen-1-yl)-8-fluoro-2-(((2R,7aS)-2-fluorotetrahydro-1H-pyrrolizin-7a(5H)-yl)methoxy)pyrido[4,3-d]pyrimidin-4-yl)azepane-4-sulfonamide] | 9 | 33 | 12 | 3130 | 1600 | – | –
13 | CCc1c(F)ccc2cc(O)cc(-c3ncc4c(N5C[C@@H]6[C@@H](CS(N)(=O)=O)NC(=O)[C@@H]6C5)nc(OC[C@@]56CCCN5C[C@H](F)C6)nc4c3F)c12 [Example 665, 1-((1S,3aS,6aR)-5-(7-(8-ethyl-7-fluoro-3-hydroxynaphthalen-1-yl)-8-fluoro-2-(((2R,7aS)-2-fluorotetrahydro-1H-pyrrolizin-7a(5H)-yl)methoxy)pyrido[4,3-d]pyrimidin-4-yl)-3-oxooctahydropyrrolo[3,4-c]pyrrol-1-yl)methanesulfonamide] | 1980 | 1250 | 966 | 1240 | 3120 | – | –
14 | CCc1c(F)ccc2cc3[nH]ncc3c(-c3ncc4c(N5CCC[C@]6(C5)NC(=O)NC6=O)nc(OCC56CCCN5CCC6)nc4c3F)c12 [Example 884, (5R)-7-(7-(5-ethyl-6-fluoro-1H-benzo[f]indazol-4-yl)-8-fluoro-2-((tetrahydro-1H-pyrrolizin-7a(5H)-yl)methoxy)pyrido[4,3-d]pyrimidin-4-yl)-1,3,7-triazaspiro[4.5]decane-2,4-dione] | < 2 | < 2 | < 2 | 3180 | 2810 | – | –
15 | CCc1c(F)ccc2cc(O)cc(-c3ncc4c(N5CCn6ncc(C#N)c6C5)nc(OC[C@@]56CCCN5C[C@H](F)C6)nc4c3F)c12 [Example 865, 5-(7-(8-ethyl-7-fluoro-3-hydroxynaphthalen-1-yl)-8-fluoro-2-(((2R,7aS)-2-fluorotetrahydro-1H-pyrrolizin-7a(5H)-yl)methoxy)pyrido[4,3-d]pyrimidin-4-yl)-4,5,6,7-tetrahydropyrazolo[1,5-a]pyrazine-3-carbonitrile] | 809 | 282 | 310 | 7700 | > 10000 | – | –
16 | CCc1c(F)ccc2cc(O)cc(-c3ncc4c(N5CCOCC(P(C)(C)=O)C5)nc(OC[C@@]56CCCN5C[C@H](F)C6)nc4c3F)c12 (stereo partly drawn) [Example 629, (4-(7-(8-ethyl-7-fluoro-3-hydroxynaphthalen-1-yl)-8-fluoro-2-(((2R,7aS)-2-fluorohexahydro-1H-pyrrolizin-7a-yl)methoxy)pyrido[4,3-d]pyrimidin-4-yl)-1,4-oxazepan-6-yl)dimethylphosphine oxide] | 65 | 37 | 15 | > 10000 | > 10000 | – | –
17 | CCc1c(F)ccc2cc(O)cc(-c3ncc4c(N5CCCn6nc(C(=O)N(C)C)cc6C5)nc(N5CC(C)(N)C5)nc4c3F)c12 [Example 532, 5-(2-(3-amino-3-methylazetidin-1-yl)-7-(8-ethyl-7-fluoro-3-hydroxynaphthalen-1-yl)-8-fluoropyrido[4,3-d]pyrimidin-4-yl)-N,N-dimethyl-5,6,7,8-tetrahydro-4H-pyrazolo[1,5-a][1,4]diazepine-2-carboxamide] | 9 | 24 | 15 | > 10000 | > 10000 | – | –
